# Data taken from ChEMBL document CHEMBL4823271, “Synthesis and structure-activity relationship of new chalcone linked 5-phenyl-3-isoxazolecarboxylic acid methyl esters potentially active against drug resistant Mycobacterium tuberculosis” (Eur J Med Chem, 2021).
# Tests used:
# Type in all cases: functional
# [1] = tested on: Mycobacterium tuberculosis; assay: Antimycobacterial activity against rifampicin-resistant Mycobacterium tuberculosis H37Rv ATCC 35838 assessed as inhibition of bacterial growth incubated for 48 hrs by broth microdilution assay
# [2] = tested on: Mycobacterium tuberculosis; assay: Antimycobacterial activity against Streptomycin-resistant Mycobacterium tuberculosis H37Rv ATCC 35820 assessed as inhibition of bacterial growth incubated for 48 hrs by broth microdilution assay
# [3] = tested on: Mycobacterium tuberculosis; assay: Antimycobacterial activity against isoniazid-resistant Mycobacterium tuberculosis H37Rv ATCC 35822 assessed as inhibition of bacterial growth incubated for 48 hrs by broth microdilution assay
# [4] = tested on: Mycobacterium tuberculosis; assay: Antimycobacterial activity against ethambutol-resistant Mycobacterium tuberculosis H37Rv ATCC 35837 assessed as inhibition of bacterial growth incubated for 48 hrs by broth microdilution assay
SMILES,MIC [1],MIC [2],MIC [3],MIC [4]
COC(=O)c1cc(-c2cccc(NC(=O)c3ccc(/C=C/C(=O)c4ccccc4C)cc3)c2)on1,0.25 µg/mL,2 µg/mL,1 µg/mL,0.12 µg/mL
CCCOc1ccc(C(=O)/C=C/c2ccc(C(=O)Nc3cccc(-c4cc(C(=O)OC)no4)c3)cc2)cc1,0.03 µg/mL,2 µg/mL,0.12 µg/mL,0.06 µg/mL
COC(=O)c1cc(-c2cccc(NC(=O)c3ccc(/C=C/C(=O)c4ccc(CC(C)C)cc4)cc3)c2)on1,16 µg/mL,1 µg/mL,> 64 µg/mL,> 64 µg/mL
COC(=O)c1cc(-c2cccc(NC(=O)c3ccc(/C=C/C(=O)c4ccc(F)cc4F)cc3)c2)on1,0.25 µg/mL,2 µg/mL,1 µg/mL,0.12 µg/mL
COC(=O)c1cc(-c2cccc(NC(=O)c3ccc(/C=C/C(=O)c4ccc(N5CCOCC5)cc4)cc3)c2)on1,0.12 µg/mL,2 µg/mL,0.12 µg/mL,0.12 µg/mL
COC(=O)c1cc(-c2cccc(NC(=O)c3ccc(/C=C/C(=O)c4ccc(C)cc4)cc3)c2)on1,> 64 µg/mL,0.25 µg/mL,0.5 µg/mL,> 64 µg/mL
COC(=O)c1cc(-c2cccc(NC(=O)c3ccc(/C=C/C(=O)c4ccc(Cl)cc4)cc3)c2)on1,2 µg/mL,2 µg/mL,> 64 µg/mL,> 64 µg/mL
CCOC(=O)c1cc(-c2cccc(NC(=O)c3ccc(/C=C/C(=O)c4ccc(Cl)cc4)cc3)c2)on1,0.5 µg/mL,64 µg/mL,32 µg/mL,4 µg/mL
COC(=O)c1cc(-c2cccc(NC(=O)c3ccc(/C=C/C(=O)c4ccc(OC)cc4OC)cc3)c2)on1,0.25 µg/mL,2 µg/mL,2 µg/mL,0.25 µg/mL
COC(=O)c1cc(-c2cccc(NC(=O)c3ccc(/C=C/C(=O)c4ccccc4Cl)cc3)c2)on1,0.25 µg/mL,0.5 µg/mL,1 µg/mL,0.25 µg/mL
COC(=O)c1cc(-c2cccc(NC(=O)c3ccc(/C=C/C(=O)c4cccc(Cl)c4)cc3)c2)on1,0.5 µg/mL,0.5 µg/mL,0.5 µg/mL,0.12 µg/mL
COC(=O)c1cc(-c2cccc(NC(=O)c3ccc(/C=C/C(=O)c4ccc(Cl)cc4Cl)cc3)c2)on1,64 µg/mL,1 µg/mL,> 64 µg/mL,> 64 µg/mL
CCOc1ccc(C(=O)/C=C/c2ccc(C(=O)Nc3cccc(-c4cc(C(=O)OC)no4)c3)cc2)cc1,0.03 µg/mL,0.5 µg/mL,0.5 µg/mL,0.06 µg/mL
COC(=O)c1cc(-c2ccc(NC(=O)c3ccc(/C=C/C(=O)c4ccc(Cl)cc4)cc3)cc2)on1,0.5 µg/mL,8 µg/mL,0.5 µg/mL,0.25 µg/mL
CCOC(=O)c1cc(/C=C/c2c(Cl)cncc2Cl)on1,1 µg/mL,8 µg/mL,4 µg/mL,8 µg/mL
CC[C@@H](CO)NCCN[C@@H](CC)CO [ETHAMBUTOL],1 µg/mL,1 µg/mL,4 µg/mL,32 µg/mL
NNC(=O)c1ccncc1 [ISONIAZID],0.03 µg/mL,0.03 µg/mL,> 64 µg/mL,0.03 µg/mL
CO[C@H]1/C=C/O[C@@]2(C)Oc3c(C)c(O)c4c(O)c(c(/C=N/N5CCN(C)CC5)c(O)c4c3C2=O)NC(=O)/C(C)=C\C=C\[C@H](C)[C@H](O)[C@@H](C)[C@@H](O)[C@@H](C)[C@H](OC(C)=O)[C@@H]1C [RIFAMPIN],64 µg/mL,0.03 µg/mL,0.03 µg/mL,0.03 µg/mL
CN[C@@H]1[C@H](O[C@H]2[C@H](O[C@H]3[C@H](O)[C@@H](O)[C@H](N=C(N)N)[C@@H](O)[C@@H]3N=C(N)N)O[C@@H](C)[C@]2(O)C=O)O[C@@H](CO)[C@H](O)[C@H]1O [STREPTOMYCIN],1 µg/mL,> 64 µg/mL,1 µg/mL,2 µg/mL
